Laboratory results published in US10759766B2, “Certain chemical entities, compositions, and methods” (NeuPharma, Inc., priority 2011, dated 2020).

Assays:
[1] = target: BRAF (Homo sapiens (Human), UniProt P15056); experiment: Z′-LYTE kinase inhibition assay (Invitrogen), BRAF; assay type: biochemical; details: 1 μM compound, Z′-LYTE method; read-out: % inhibition at 1 μM against BRAF
[2] = target: BRAF V600E (Homo sapiens (Human), UniProt P15056, V600E); experiment: Z′-LYTE kinase inhibition assay (Invitrogen), BRAF V600E; assay type: biochemical; details: Z′-LYTE method; for inhibition at 1 µM: 1 μM compound, read-out: % inhibition at 1 μM against BRAF V600E
Sequence of BRAF V600E (P15056 whole entry V600E): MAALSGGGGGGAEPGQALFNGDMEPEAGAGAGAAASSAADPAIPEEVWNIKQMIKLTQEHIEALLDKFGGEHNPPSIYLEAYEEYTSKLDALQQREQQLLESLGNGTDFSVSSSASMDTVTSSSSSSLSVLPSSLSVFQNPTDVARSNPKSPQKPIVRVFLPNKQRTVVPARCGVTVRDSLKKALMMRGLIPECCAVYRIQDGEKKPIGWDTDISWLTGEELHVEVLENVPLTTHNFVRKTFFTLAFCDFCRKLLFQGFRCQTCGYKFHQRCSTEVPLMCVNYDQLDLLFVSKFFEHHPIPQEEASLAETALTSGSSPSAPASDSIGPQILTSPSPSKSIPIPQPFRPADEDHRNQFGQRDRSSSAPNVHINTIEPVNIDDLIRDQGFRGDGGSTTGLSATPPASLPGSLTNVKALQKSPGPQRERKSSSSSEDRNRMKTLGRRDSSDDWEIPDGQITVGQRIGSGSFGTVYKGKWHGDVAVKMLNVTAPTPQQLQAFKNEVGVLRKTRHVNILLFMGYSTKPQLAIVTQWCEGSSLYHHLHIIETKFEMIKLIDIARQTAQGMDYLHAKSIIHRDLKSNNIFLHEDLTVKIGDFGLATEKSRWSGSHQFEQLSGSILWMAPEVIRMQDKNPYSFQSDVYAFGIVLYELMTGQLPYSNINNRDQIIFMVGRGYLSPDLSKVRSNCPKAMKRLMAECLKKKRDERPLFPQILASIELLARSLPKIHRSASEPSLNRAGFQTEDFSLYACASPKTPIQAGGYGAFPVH
Summary of the method: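 FRET-based Z′-LYTE peptide phosphorylation format in 50 mM HEPES pH 7.5, 0.01% BRIJ-35, 10 mM MgCl2, 1 mM EGTA with ATP. Kinase reaction 60 min at room temperature, then protease development step 60 min at room temperature before fluorescence read. IC50 from compound concentration versus percent inhibition.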

[3] = target: KDR (VEGFR2) (Homo sapiens (Human), UniProt P35968); experiment: Z′-LYTE kinase inhibition assay (Invitrogen), KDR; assay type: biochemical; details: Z′-LYTE method; for inhibition at 1 µM: 1 μM compound, read-out: % inhibition at 1 μM against KDR; for IC50: read-out: IC50 against KDR
Sequence of KDR (VEGFR2) (P35968 20-1356): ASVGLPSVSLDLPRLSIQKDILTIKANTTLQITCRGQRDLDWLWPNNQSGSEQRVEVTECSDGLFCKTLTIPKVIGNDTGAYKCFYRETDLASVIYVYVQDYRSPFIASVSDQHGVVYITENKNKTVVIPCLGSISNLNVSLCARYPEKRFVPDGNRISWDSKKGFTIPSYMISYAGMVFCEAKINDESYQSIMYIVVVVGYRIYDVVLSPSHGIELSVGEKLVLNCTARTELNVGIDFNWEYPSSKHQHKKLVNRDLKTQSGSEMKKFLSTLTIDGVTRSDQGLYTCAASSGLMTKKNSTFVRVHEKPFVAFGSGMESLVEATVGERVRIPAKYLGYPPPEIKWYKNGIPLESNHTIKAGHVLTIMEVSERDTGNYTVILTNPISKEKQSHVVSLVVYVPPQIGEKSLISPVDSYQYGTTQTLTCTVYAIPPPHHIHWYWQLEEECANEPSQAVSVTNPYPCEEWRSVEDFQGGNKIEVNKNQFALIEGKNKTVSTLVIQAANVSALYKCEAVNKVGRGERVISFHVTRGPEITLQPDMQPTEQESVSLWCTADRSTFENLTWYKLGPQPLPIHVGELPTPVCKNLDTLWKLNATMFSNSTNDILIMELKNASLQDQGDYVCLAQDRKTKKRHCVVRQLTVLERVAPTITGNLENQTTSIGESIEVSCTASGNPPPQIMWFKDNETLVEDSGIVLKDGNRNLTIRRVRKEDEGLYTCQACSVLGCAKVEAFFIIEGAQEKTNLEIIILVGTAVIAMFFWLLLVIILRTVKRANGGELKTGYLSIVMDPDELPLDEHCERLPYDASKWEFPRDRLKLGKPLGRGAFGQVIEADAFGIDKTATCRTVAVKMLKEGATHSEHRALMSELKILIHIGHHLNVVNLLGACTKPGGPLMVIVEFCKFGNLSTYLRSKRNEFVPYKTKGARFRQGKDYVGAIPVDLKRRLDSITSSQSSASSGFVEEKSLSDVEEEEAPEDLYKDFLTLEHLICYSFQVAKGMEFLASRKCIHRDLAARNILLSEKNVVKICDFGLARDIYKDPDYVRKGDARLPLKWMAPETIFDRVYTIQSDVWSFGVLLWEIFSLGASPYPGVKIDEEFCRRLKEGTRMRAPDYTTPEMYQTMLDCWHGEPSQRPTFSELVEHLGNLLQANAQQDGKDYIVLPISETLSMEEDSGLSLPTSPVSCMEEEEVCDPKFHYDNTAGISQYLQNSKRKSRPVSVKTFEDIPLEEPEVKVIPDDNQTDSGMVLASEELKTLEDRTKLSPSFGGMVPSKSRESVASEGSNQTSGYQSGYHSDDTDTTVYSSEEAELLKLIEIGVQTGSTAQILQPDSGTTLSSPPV
Summary of the method: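 Z′-LYTE FRET assay: 10 μL reactions with 0.5–11.7 ng KDR and 2 μM Tyr 01 peptide in 50 mM HEPES pH 7.5, 10 mM MgCl2, 1 mM EGTA, 0.01% BRIJ-35, 1 h at room temperature. Development Reagent B (1:256) added for 60 min, fluorescence read; IC50 from concentration–inhibition curves.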

[4] = test system: A375 cells; experiment: Inhibition of cancer cell growth, MTT assay, A375; assay type: cell-based; details: Homo sapiens, A-375, 72 h exposure
Summary of the method: (§1)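 Cells grown in RPMI 1640 with 10% FBS were seeded at about 4000 cells/well, left 24 h, then exposed to compound for 72 h (1% DMSO final). MTT absorbance at 570 nm was compared with viable cells at time of addition to give growth inhibition; IC50 from concentration–inhibition plots, triplicates.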

[5] = test system: A549 cells; experiment: Inhibition of cancer cell growth, MTT assay, A549; assay type: cell-based; details: Homo sapiens, A549, 72 h exposure
Summary of the method: as §1

Sequence of BRAF (P15056 whole entry): as the sequence (P15056 whole entry V600E) above, with E600V counted along it

| Structure (SMILES) | inhibition at 1 µM [1] [%] | inhibition at 1 µM [2] [%] | inhibition at 1 µM [3] [%] | IC50 [4] [µM] | IC50 [5] [µM] | IC50 ([2]; read-out: IC50 against BRAF V600E) [µM] | IC50 [3] [µM] |
| --- | --- | --- | --- | --- | --- | --- | --- |
| O=C(Nc1cc(F)c(F)c(C(=O)c2ccc3ncc(N4CCOCC4)nc3c2)c1)c1cccc(F)c1 [Compound C144, N-(3,4-difluoro-5-(3-morpholinoquinoxaline-6-carbonyl)phenyl)-3-fluorobenzamide] | 70 to 89 | > 89 | 70 to 89 | 1 to 5 | 2 to 5 |  |  |
| O=C(Nc1cc(F)cc(C(=O)c2ccc3nccnc3c2)c1)Nc1ccc(Cl)c(C(F)(F)F)c1 [Compound C026, 1-(4-chloro-3-(trifluoromethyl)phenyl)-3-(3-fluoro-5-(quinoxaline-6-carbonyl)phenyl)urea] | < 70 | 70 to 89 | 70 to 89 | 1 to 5 | 2 to 5 |  |  |
| O=C(Nc1cccc(C(F)(F)F)c1)Nc1cc(F)c(F)c(C(=O)c2ccc3nccnc3c2)c1F [Compound C006, 1-(2,4,5-trifluoro-3-(quinoxaline-6-carbonyl)phenyl)-3-(3-(trifluoromethyl)phenyl)urea] | < 70 | 70 to 89 | < 70 | > 5 | > 5 |  |  |
| O=C(Nc1cccc(C(=O)c2ccc3nccnc3c2)c1)c1ccc(C(F)(F)F)c(Cl)c1 [Compound C107, 3-chloro-N-(3-(quinoxaline-6-carbonyl)phenyl)-4-(trifluoromethyl)benzamide] | < 70 | > 89 | < 70 | 1 to 5 | > 5 |  |  |

Next, values leading:

| inhibition at 1 µM [1] [%] | inhibition at 1 µM [2] [%] | inhibition at 1 µM [3] [%] | IC50 [4] [µM] | IC50 [5] [µM] | IC50 ([2]; read-out: IC50 against BRAF V600E) [µM] | IC50 [3] [µM] | Structure (SMILES) |
| --- | --- | --- | --- | --- | --- | --- | --- |
| 70 to 89 | > 89 | 70 to 89 | < 1 | < 2 | < 0.1 | < 0.1 | O=C(Nc1cc(F)cc(C(=O)c2ccc3ncc(N4CCOCC4)nc3c2)c1)Nc1cccc(C(F)(F)F)c1 [Compound C038, 1-(3-fluoro-5-(3-morpholinoquinoxaline-6-carbonyl)phenyl)-3-(3-(trifluoromethyl)phenyl)urea] |
| > 89 | > 89 | > 89 | < 1 | < 2 |  | < 0.1 | O=C(Nc1ccc(F)cc1)Nc1ccc(F)c(C(=O)c2ccc3ncc(N4CCOCC4)nc3c2)c1 [Compound C053, 1-(4-fluoro-3-(3-morpholinoquinoxaline-6-carbonyl)phenyl)-3-(4-fluorophenyl)urea] |
| < 70 | 70 to 89 | 70 to 89 | < 1 | 2 to 5 |  |  | O=C(Nc1cc(F)cc(C(=O)c2ccc3ncc(N4CCOCC4)nc3c2)c1)Nc1ccc(Cl)c(C(F)(F)F)c1 [Compound C031, 1-(4-chloro-3-(trifluoromethyl)phenyl)-3-(3-fluoro-5-(3-morpholinoquinoxaline-6-carbonyl)phenyl)urea] |
